From patent US11690377B2, “Herbicidal composition and method of use thereof” (Belchim Crop Protection NV, priority 2017, dated 2023)

Legend:
Format in all cases: in vivo
[1] = system: AMATA - Common Waterhemp (Amaranthus rudis); assay: Field trial, post-emergence weed control in corn, AMATA
Procedure: (§1) Field trials were conducted in Tennessee and Illinois (USA). The crop and weed species had been seeded and/or drill sown. In the case of post-emergence evaluation, seeded and/or drill sown plants were grown to a certain growth stage before application of the active ingredients (alone or as a mixture). In the case of pre-emergence evaluation, the application of the active ingredients was carried out after the plants were seeded and/or drilled sown. The trial was in the form of a randomized complete block. The percentage of weed control was assessed in several different instances after treatment until a maximum of 42 days after treatment, by comparison with untreated control plots by visual scoring. The herbicidal action was assessed qualitatively and quantitatively. To quantify the synergic effect resulting from the combination of mesotrione and pyridate, the inventors used the methodology described by Colby, in which a synergistic effect exists when the activity of a composition comprising both active compounds is greater than the sum of the activities of the two active compounds applied individually. The expected activity for the combination of mesotrione and pyridate can be calculated by the following so-called “Colby equation” (see S. R. Colby, “Calculating Synergistic and Antagonistic Responses of Herbicide Combinations”, Weeds 1967, 15, 20-22). Pa+b=(Pa+Pb)−(Pa*Pb/100) Wherein • Pa+b is the expected percent inhibition of weed growth by the combination of mesotrione and pyridate; • Pa is the percent inhibition of weed growth induced by mesotrione; • Pb is the percent inhibition of weed growth induced by pyridate. If the actual percent inhibition of weed growth induced by the combination of mesotrione and pyridate is greater than the expected percent inhibition (Pa+b) calculated from the Colby equation, then the activity of the combination is synergistic. The below Tables represent the herbicidal performance of the composition according to the invention, and also the herbicidal performance of the active ingredients alone, in controlling specific weeds. The expected percent inhibition of weed growth (derived from the Colby's equation) and the actual (observed) percent inhibition of weed growth is also presented in order to conclude on the synergistic effect of the combination according to the invention. Post-Emergence Herbicidal Performance of the Composition According to the Invention Against Broadleaf Weed in Corn.

[2] = system: IPOHE - Ivyleaf Morningglory (Ipomoea headrace); assay: Field trial, post-emergence weed control in corn, IPOHE
Procedure: as §1

[3] = system: AMAPA - Palmer Pigweed (Amaranthus palmeri); assay: Field trial, post-emergence weed control in corn, AMAPA; conditions: mesotrione 3 oz/A, pyridate 6.84 oz/A, combination 3 + 6.84 oz/A
Procedure: as §1

[4] = system: AMAPA - Palmer Pigweed (Amaranthus palmeri); assay: Field trial, pre-emergence weed control in corn, AMAPA; conditions: mesotrione 3.85 oz/A, pyridate 6.84 oz/A, combination 3.85 + 6.84 oz/A
Procedure: Field trials were conducted in Tennessee and Illinois (USA). The crop and weed species had been seeded and/or drill sown. In the case of post-emergence evaluation, seeded and/or drill sown plants were grown to a certain growth stage before application of the active ingredients (alone or as a mixture). In the case of pre-emergence evaluation, the application of the active ingredients was carried out after the plants were seeded and/or drilled sown. The trial was in the form of a randomized complete block. The percentage of weed control was assessed in several different instances after treatment until a maximum of 42 days after treatment, by comparison with untreated control plots by visual scoring. The herbicidal action was assessed qualitatively and quantitatively. To quantify the synergic effect resulting from the combination of mesotrione and pyridate, the inventors used the methodology described by Colby, in which a synergistic effect exists when the activity of a composition comprising both active compounds is greater than the sum of the activities of the two active compounds applied individually. The expected activity for the combination of mesotrione and pyridate can be calculated by the following so-called “Colby equation” (see S. R. Colby, “Calculating Synergistic and Antagonistic Responses of Herbicide Combinations”, Weeds 1967, 15, 20-22). Pa+b=(Pa+Pb)−(Pa*Pb/100) Wherein • Pa+b is the expected percent inhibition of weed growth by the combination of mesotrione and pyridate; • Pa is the percent inhibition of weed growth induced by mesotrione; • Pb is the percent inhibition of weed growth induced by pyridate. If the actual percent inhibition of weed growth induced by the combination of mesotrione and pyridate is greater than the expected percent inhibition (Pa+b) calculated from the Colby equation, then the activity of the combination is synergistic. The below Tables represent the herbicidal performance of the composition according to the invention, and also the herbicidal performance of the active ingredients alone, in controlling specific weeds. The expected percent inhibition of weed growth (derived from the Colby's equation) and the actual (observed) percent inhibition of weed growth is also presented in order to conclude on the synergistic effect of the combination according to the invention. Pre-Emergence Herbicidal Performance of the Composition According to the Invention Against Broadleaf Weed in Corn.

[5] = 7 days after treatment, mesotrione 2 oz./A, pyridate 2 oz./A, combination 2 + 2 oz./A
[6] = 7 days after treatment, mesotrione 3 oz./A, pyridate 3 oz./A, combination 3 + 3 oz./A
[7] = 7 days after treatment, mesotrione 3 oz./A, pyridate 6.84 oz./A, combination 3 + 6.84 oz./A
[8] = 14 days after treatment, mesotrione 2 oz./A, pyridate 2 oz./A, combination 2 + 2 oz./A
[9] = 14 days after treatment, mesotrione 3 oz./A, pyridate 3 oz./A, combination 3 + 3 oz./A
[10] = 14 days after treatment, mesotrione 3 oz./A, pyridate 6.84 oz./A, combination 3 + 6.84 oz./A
[11] = 28 days after treatment, mesotrione 2 oz./A, pyridate 2 oz./A, combination 2 + 2 oz./A
[12] = 28 days after treatment, mesotrione 3 oz./A, pyridate 3 oz./A, combination 3 + 3 oz./A
[13] = 28 days after treatment, mesotrione 3 oz./A, pyridate 6.84 oz./A, combination 3 + 6.84 oz./A
[14] = 8 days after treatment, mesotrione 2 oz/A, pyridate 2 oz/A, combination 2 + 2 oz/A
[15] = 8 days after treatment, mesotrione 3 oz/A, pyridate 3 oz/A, combination 3 + 3 oz/A
[16] = 8 days after treatment, mesotrione 3 oz/A, pyridate 6.84 oz/A, combination 3 + 6.84 oz/A
[17] = 16 days after treatment, mesotrione 2 oz/A, pyridate 2 oz/A, combination 2 + 2 oz/A
[18] = 16 days after treatment, mesotrione 3 oz/A, pyridate 3 oz/A, combination 3 + 3 oz/A
[19] = 16 days after treatment, mesotrione 3 oz/A, pyridate 6.84 oz/A, combination 3 + 6.84 oz/A
[20] = 21 days after treatment, mesotrione 2 oz/A, pyridate 2 oz/A, combination 2 + 2 oz/A
[21] = 21 days after treatment, mesotrione 3 oz/A, pyridate 3 oz/A, combination 3 + 3 oz/A
[22] = 21 days after treatment, mesotrione 3 oz/A, pyridate 6.84 oz/A, combination 3 + 6.84 oz/A

Structure (SMILES)	Mean percentage of weed control (observed) [1, 5]	Mean percentage of weed control (observed) [1, 6]	Mean percentage of weed control (observed) [1, 7]	Mean percentage of weed control (observed) [1, 8]	Mean percentage of weed control (observed) [1, 9]	Mean percentage of weed control (observed) [1, 10]	Mean percentage of weed control (observed) [1, 11]	Mean percentage of weed control (observed) [1, 12]	Mean percentage of weed control (observed) [1, 13]	Mean percentage of weed control (observed) [2, 14]	Mean percentage of weed control (observed) [2, 15]	Mean percentage of weed control (observed) [2, 16]	Mean percentage of weed control (observed) [2, 17]	Mean percentage of weed control (observed) [2, 18]	Mean percentage of weed control (observed) [2, 19]	Mean percentage of weed control (observed) [2, 20]	Mean percentage of weed control (observed) [2, 21]	Mean percentage of weed control (observed) [2, 22]	Mean percentage of weed control (observed) ([3]; 8 days after treatment)	Mean percentage of weed control (observed) ([3]; 16 days after treatment)	also measured
CCCCCCCCSC(=O)Oc1cc(Cl)nnc1-c1ccccc1 [pyridate, Pyridate]	0%	0%	10%	0%	0%	12%	0%	0%	6%	28%	40%	10%	18%	10%	23%	18%	10%	23%	23%	33%	Mean percentage of weed control (observed) ([3]; 21 days after treatment): 33%; Mean percentage of weed control (observed) ([4]; 7 days after treatment): 37%; Mean percentage of weed control (observed) ([4]; 14 days after treatment): 42%; Mean percentage of weed control (observed) ([4]; 28 days after treatment): 20%; Mean percentage of weed control (observed) ([4]; 42 days after treatment): 20%
CS(=O)(=O)c1ccc(C(=O)C2C(=O)CCCC2=O)c([N+](=O)[O-])c1 [mesotrione, Mesotrione]	73%	73%	68%	75%	73%	80%	73%	68%	85%	43%	68%	65%	35%	63%	78%	38%	60%	75%	53%	55%	Mean percentage of weed control (observed) ([3]; 21 days after treatment): 55%; Mean percentage of weed control (observed) ([4]; 7 days after treatment): 62%; Mean percentage of weed control (observed) ([4]; 14 days after treatment): 64%; Mean percentage of weed control (observed) ([4]; 28 days after treatment): 40%; Mean percentage of weed control (observed) ([4]; 42 days after treatment): 34%
